Measurements taken from patent US20050053668A1, “Skeletally targeted nanoparticles” (Southwest Research Institute, priority 2003, published 2005).
One block for each molecule: values may come before it.

Experiments:
unloaded bones = details: infusion; cited from earlier work
hindlimb unloaded rats = details: cited from earlier work
panel of tumor cells = details: cited from earlier work
myeloma cell = details: in vitro; cited from earlier work
[1] = cited from earlier work
[2] = type: physicochemical
Description: Lovastatin was encapsulated in MBP-lipid conjugate micelles at ratios ranging from about 1:1 to 1:50 mol:mol lovastatin:lipid using the phase separation technique. All preparations initially produced clear, colorless solutions, indicating complete solubilization of lovastatin by the lipid. However, over time, usually within about 24 hours, needle-like crystals were observed on the surface of the fluid. […] The crystals were confirmed to be lovastatin by HPLC analysis.

Molecule: IGF-1: insulin-like growth factor, regulates bone formation
dose required to demonstrate any protective effect against unloading (unloaded bones): 2 mg/kg/day

Molecule: TGF-β
effect on bone formation in control animals (hindlimb unloaded rats; infusion 2 μg/kg/day, control animals): has no effect on bone formation
effect on unloading-induced bone changes (hindlimb unloaded rats; infusion 2 μg/kg/day, hindlimb unloading in rats): corrects the decrease in bone mass, calcium content, osteoblast number and mineralization rate
effect on indices of bone resorption (hindlimb unloaded rats; infusion, normal and unloaded rats): decreases the indices of bone resorption

Molecule: CC(C)C[C@H](NC(=O)[C@H](Cc1ccccc1)NC(=O)c1cnccn1)B(O)O [PS-341]
cytotoxicity (panel of tumor cells): cytotoxic
inhibition of myeloma cell growth and survival (myeloma cell): potent inhibitor
side-effects in clinical use [1]: thrombocytopenia, peripheral neuropathy, hypotension, and, in severe cases, cardiovascular toxicity

amount of stabilized lovastatin after ageing [2]: increased slightly
lovastatin stabilized in micelles [2]: about 0.03 μg/μg of lipid
lovastatin stabilized in micelles, molar ratio [2]: ~1:5 mol:mol lovastatin:lipid
lovastatin encapsulated before free drug precipitates ([2]; micelles of MBP-based ligand-phospholipid conjugate, FIG. 9): about 0.03 μg of lovastatin/μg of lipid
time until needle-like lovastatin crystals were observed ([2]; preparations 1:1 to 1:50 mol:mol lovastatin:lipid): ≤ 24 h
Molecule: CC[C@H](C)C(=O)O[C@H]1C[C@@H](C)C=C2C=C[C@H](C)[C@H](CC[C@@H]3C[C@@H](O)CC(=O)O3)[C@H]21 [lovastatin]
